Here are results for 23 molecules from ChEMBL document CHEMBL5137070, “N-2-(Phenylamino) Benzamide Derivatives as Dual Inhibitors of COX-2 and Topo I Deter Gastrointestinal Cancers via Targeting Inflammation and Tumor Progression” (J Med Chem, 2022).

The source made the active and inactive calls. The calls are words filed in the database; no cut-off is given here.

In one data set the test system is HT-29. Nature of the data set: Antiproliferative activity against human HT-29 cells assessed as reduction in cell proliferation incubated for 48 hrs by MTT assay. Type of data set: functional, cell-based. The following applies: HT-29, 48 h. In general terms: Tetrazolium assays rely on reduction of a dye to a coloured formazan, in cell work by metabolically active cells.

Data set [1] deals with T1, DNA topoisomerase 1 (Homo sapiens) (UniProt P11387).
T1 sequence (whole entry): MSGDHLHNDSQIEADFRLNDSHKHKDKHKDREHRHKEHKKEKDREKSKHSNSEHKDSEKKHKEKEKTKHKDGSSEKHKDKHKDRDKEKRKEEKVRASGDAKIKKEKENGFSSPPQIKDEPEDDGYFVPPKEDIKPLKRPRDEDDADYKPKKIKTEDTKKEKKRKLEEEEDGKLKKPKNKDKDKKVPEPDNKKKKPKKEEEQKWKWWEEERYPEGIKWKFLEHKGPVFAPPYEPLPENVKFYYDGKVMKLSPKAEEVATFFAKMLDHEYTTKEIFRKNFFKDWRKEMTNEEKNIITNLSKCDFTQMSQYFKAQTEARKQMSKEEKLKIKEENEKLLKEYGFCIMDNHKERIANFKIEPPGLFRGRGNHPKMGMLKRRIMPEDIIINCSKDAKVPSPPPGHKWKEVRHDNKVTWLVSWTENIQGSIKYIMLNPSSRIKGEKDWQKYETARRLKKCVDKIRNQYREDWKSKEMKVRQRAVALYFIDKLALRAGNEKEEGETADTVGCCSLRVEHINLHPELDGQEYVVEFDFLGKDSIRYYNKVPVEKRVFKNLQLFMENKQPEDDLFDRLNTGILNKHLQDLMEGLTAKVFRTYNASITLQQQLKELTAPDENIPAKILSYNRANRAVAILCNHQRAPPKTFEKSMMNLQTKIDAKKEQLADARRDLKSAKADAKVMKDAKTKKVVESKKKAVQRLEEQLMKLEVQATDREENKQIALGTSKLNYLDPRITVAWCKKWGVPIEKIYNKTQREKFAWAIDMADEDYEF
Nature of the data set: Inhibition of human topoisomerase I assessed as DNA unwinding using DNA pBR322 as substrate at 2 uM incubated for 30 mins by ethidium bromide staining based agarose gel electrophoresis.

The next data set relates to CT26.WT. Put plainly: Antiproliferative activity against mouse CT26.WT cells assessed as reduction in cell proliferation incubated for 48 hrs by MTT assay. The class given is functional, cell-based.
Another data set relates to SGC-7901. Nature of the data set: Antiproliferative activity against human SGC-7901 cells assessed as reduction in cell proliferation incubated for 48 hrs by MTT assay. The note with it: SGC-7901, 48 h. The class given is functional, cell-based.
Another data set relates to HGC-27. Put plainly: Antiproliferative activity against human HGC-27 cells assessed as reduction in cell proliferation incubated for 48 hrs by MTT assay. The following applies: HGC-27, 48 h. The class given is functional, cell-based.
Data set [2] relates to RKO. Nature of the data set: Antiproliferative activity against human RKO cells assessed as reduction in cell proliferation incubated for 48 hrs by MTT assay. The class given is functional, cell-based.
The subject of data set [3] is RKO. Nature of the data set: Anti-migration activity against human RKO cells assessed as inhibition of cell migration at 0.37 uM and measured after 24 hrs by wound healing assay. The class given is functional, cell-based.
Data set [4] has as its system RAW264.7. Put plainly: Antiinflammatory activity in mouse RAW264.7 cells assessed as reduction in LPS-induced COX-2 expression at 6.6 uM incubated for 1 hrs followed by LPS stimulation and measured after 24 hrs by western blot analysis. Type of data set: functional, cell-based. The note with it: time 25.0 hrs. A general note: In western blotting, separated proteins are transferred to a membrane and probed.

Data set [5] concerns RAW264.7. Nature of the data set: Cytotoxicity against mouse RAW264.7 cells assessed as reduction in cell viability at <=11.11 for 24 hrs by MTT assay. The class given is toxicity, cell-based. The following applies: raw264.7, 24 h.

In general, IC50 refers to the concentration needed to halve the response being measured. The term inhibition denotes how much of the control response was suppressed.

As to `O=C(NCc1ccc(O)cc1)c1ccccc1Nc1ccccc1`, the IC50 with HT-29 was 50.9 µM; in the data set with CT26.WT, over 100 µM; in the data set with SGC-7901, 61 µM; in the data set with HGC-27, 54.8 µM; in the data set on RKO [2], 69.9 µM. Also, the inhibition in data set [1] is 37.3%.

In the case of `COc1ccc(NC(=O)c2ccccc2Nc2cccc(Cl)c2C)cc1`, the IC50 worked out at 5.97 µM with HT-29; 11 µM with CT26.WT; 5.75 µM in the data set on SGC-7901; 2.32 µM in the data set with HGC-27; 3.69 µM in the data set on RKO [2]. Moreover, the inhibition in [1] worked out at 2.55%. Moreover, the outcome in the data set on RKO [3] and in the data set on RAW264.7 [4] was Active.

For the molecule `Cc1c(Cl)cccc1Nc1ccccc1C(=O)NCc1ccc(O)cc1`, the half-inhibitory concentration (IC50) with HT-29 turned out to be 13.5 µM; with CT26.WT, 10.5 µM; in the data set on SGC-7901, 21.1 µM; in the data set on HGC-27, 34.2 µM; in the data set with RKO [2] it was 8.32 µM. In addition, in data set [1], the inhibition was found to be 35%.

For `Cc1c(Cl)cccc1Nc1ccccc1C(=O)NCc1ccccc1O`, the IC50 was 51.4 µM with HT-29; over 100 µM with CT26.WT; 38 µM with SGC-7901; 46.9 µM in the data set on HGC-27; 32.7 µM with RKO [2]. Further, the inhibition in data set [1] amounted to 15.2%.

As for `Cc1c(Cl)cccc1N(C)c1ccccc1C(=O)NCc1ccc(O)c(F)c1`, the 50% inhibitory concentration (IC50) was 52.5 µM with HT-29; over 100 µM in the data set on CT26.WT; 99.9 µM in the data set with SGC-7901; 88.1 µM in the data set with HGC-27; over 100 µM with RKO [2]. The inhibition in data set [1] was found to be 22.3%.

As for `Cc1ccc(Cl)c(Nc2ccccc2C(=O)NCc2ccc(O)cc2)c1Cl`, the IC50 was 23.7 µM with HT-29; 83.4 µM in the data set with CT26.WT; 20.5 µM in the data set on SGC-7901; 35.2 µM in the data set on HGC-27; 28.9 µM in the data set with RKO [2]. In data set [1], the inhibition came out at 5.57%.

For `Cc1cccc(Nc2ccccc2C(=O)NCc2ccc(O)cc2)c1C`, the half-maximal inhibitory concentration (IC50) is 19.7 µM in the data set with HT-29; over 100 µM in the data set with CT26.WT; 22.1 µM in the data set with SGC-7901; 33.1 µM in the data set with HGC-27; 17.4 µM with RKO [2]. Moreover, the inhibition in data set [1] turned out to be 19.3%.

Regarding `O=C(NCc1ccc(O)cc1)c1ccccc1Nc1cccc(Cl)c1`, the IC50 with HT-29 is 43.8 µM; in the data set with CT26.WT it was 38.3 µM; in the data set on SGC-7901, 32.7 µM; in the data set on HGC-27 it was 26.4 µM; in the data set on RKO [2], 24.9 µM. For the same molecule, the inhibition in data set [1] amounted to 26.7%.

In the case of `Cc1c(Cl)cccc1Nc1ccccc1C(=O)NCc1ccc(O)c(O)c1`, the IC50 with HT-29 amounted to 19.5 µM; in the data set on CT26.WT it was 9.64 µM; in the data set on SGC-7901, 59.7 µM; with HGC-27, 16.5 µM; in the data set with RKO [2], 59.4 µM. Moreover, in [1], the inhibition amounted to 55.3%.

For `Cc1c(Cl)cccc1Nc1ccccc1C(=O)NCc1ccc(F)cc1`, the IC50 was over 100 µM with HT-29; over 100 µM with CT26.WT; 51.8 µM with SGC-7901; 46.4 µM with HGC-27; 62.4 µM with RKO [2]. Further, in data set [1], the inhibition amounted to 24.7%.

Turning to `Cc1ccc(Nc2cccc(Cl)c2C)c(C(=O)NCc2ccc(O)c(F)c2)c1`, the IC50 with HT-29 is 16.2 µM; with CT26.WT it was over 100 µM; with SGC-7901 it was 62.1 µM; in the data set with HGC-27, 56.8 µM; in the data set with RKO [2], 50.6 µM. For the same molecule, the inhibition in data set [1] was determined as 19.7%.

With `O=C(NCCc1ccc(O)cc1)c1ccccc1Nc1ccccc1`, the 50% inhibitory concentration (IC50) with HT-29 is 44.5 µM; in the data set on CT26.WT, 67.8 µM; in the data set with SGC-7901, 60.4 µM; with HGC-27, 92.5 µM; in the data set with RKO [2], over 100 µM. The inhibition in data set [1] was determined as 13.8%.

As for `O=C(NCCCc1ccc(O)cc1)c1ccccc1Nc1ccccc1`, the concentration for half-maximal inhibition (IC50) with HT-29, in the data set with CT26.WT, with SGC-7901, with HGC-27 and in the data set on RKO [2] was over 100 µM each time. The inhibition in [1] was determined as 0%.

On to `Cc1c(Cl)cccc1Nc1ccccc1C(=O)NCc1cccc(O)c1`, for which the IC50 in the data set on HT-29 was 33.6 µM; in the data set on CT26.WT, 8.52 µM; with SGC-7901, 8.92 µM; with HGC-27 it was 2.41 µM; in the data set on RKO [2] it was 6.97 µM. Also, the inhibition in data set [1] came to 37.4%.

`Cc1c(Cl)cccc1Oc1ccccc1C(=O)NCc1ccc(O)cc1`: the IC50 is over 100 µM with HT-29; 36.8 µM in the data set with CT26.WT; 90.4 µM in the data set on SGC-7901; 59.4 µM with HGC-27; 101 µM in the data set with RKO [2]. The inhibition in data set [1] came to 17.6%.

Take `O=C(Nc1ccc(O)cc1)c1ccccc1Nc1ccccc1`: the IC50 with HT-29 was 72.9 µM; in the data set with CT26.WT, 52.8 µM; in the data set with SGC-7901, 61.4 µM; with HGC-27, 74.8 µM; in the data set with RKO [2], 66.7 µM. In data set [1], the inhibition is 8.56%.

On to `Cc1c(Cl)cccc1Nc1ncccc1C(=O)NCc1ccc(O)cc1`, for which the IC50 in the data set with HT-29 was 47.3 µM; in the data set on CT26.WT, over 100 µM; in the data set on SGC-7901, 33.9 µM; with HGC-27, 50.2 µM; in the data set with RKO [2] it was 23.7 µM. Also, the inhibition in data set [1] is 6.87%.

With `Cc1c(Cl)cccc1Nc1ccccc1C(=O)NCc1cccc2c1OCO2`, the half-maximal inhibitory concentration (IC50) in the data set on HT-29 is 22.5 µM; in the data set on CT26.WT, over 100 µM; with SGC-7901, 41.9 µM; in the data set with HGC-27, 27.7 µM; with RKO [2] it was 26.9 µM. Moreover, the inhibition in data set [1] was found to be 3.51%.

Turning to `Cc1c(Cl)cccc1N(C)c1ccccc1C(=O)NCc1ccc(O)cc1`, the IC50 is over 100 µM in the data set with HT-29; over 100 µM in the data set with CT26.WT; 77.7 µM with SGC-7901; 58 µM in the data set with HGC-27; over 100 µM with RKO [2]. The inhibition in [1] was 25.9%.

For `Cc1c(Cl)cccc1Nc1ccccc1C(=O)O` [TOLFENAMIC ACID], the half-inhibitory concentration (IC50) in the data set with HT-29, in the data set on CT26.WT, in the data set on SGC-7901, in the data set on HGC-27 and in the data set with RKO [2] was over 100 µM in each case. Also, the Activity in the data set on RAW264.7 [5] is over 80%.

On to `OCc1ccc(O)cc1` [PARAHYDROXYBENZYL ALCOHOL], for which the concentration for half-maximal inhibition (IC50) in the data set with HT-29, in the data set on CT26.WT, with SGC-7901, in the data set with HGC-27 and in the data set with RKO [2] was over 100 µM throughout.

Consider `Cc1c(Cl)cccc1Nc1ccccc1C(=O)NCc1ccc(O)c(F)c1`, for which the IC50 was 26.3 µM in the data set on HT-29; 11.6 µM in the data set on CT26.WT; 60.8 µM with SGC-7901; 12 µM with HGC-27; 5.23 µM in the data set with RKO [2]. Further, the inhibition in data set [1] amounted to 44.7%.

As for `CC[C@@]1(O)C(=O)OCc2c1cc1n(c2=O)Cc2cc3ccccc3nc2-1` [CAMPTOTHECIN], the IC50 with HT-29 was 1.37 µM; in the data set on CT26.WT, 0.43 µM; with SGC-7901 it was 5.8 µM; with HGC-27, 0.166 µM; in the data set on RKO [2] it was 0.0617 µM. The result in the data set on RKO [3] was Active.
